Laboratory results taken from patent publication EP3807270B1, “NOVEL HETEROARYL HETEROCYCLYL COMPOUNDS FOR THE TREATMENT OF AUTOIMMUNE DISEASE” (F. Hoffmann-La Roche AG, priority 2018, dated 2019).
Blank lines part the entries; values can stand above or below the molecule they belong to.

Assays:
hERG channel = target: T1, hERG channel (Homo sapiens, UniProt Q12809); assay: hERG channel inhibition assay (patch-clamp, CHO hERG cells); assay type: cell-based; settings: for IC50 / IC20: CHO hERG cells, whole-cell patch-clamp; for IC20: human, CHO cells stably expressing hERG; for hERG IC20 / TLR8 IC50 / hERG IC20 / TLR7 IC50 / hERG IC20 / TLR9 IC50: safety ratio; for hERG IC20 / TLR7 IC50: TLR7 IC50 of ER compounds from Table 1; for hERG IC20 / TLR9 IC50: TLR9 IC50 of ER compounds from Table 1
T1 construct: expressed in transfected cells; host or cells: CHO (Chinese hamster ovary)
Method: The hERG K^+ channels were cloned in humans and stably expressed in a CHO (Chinese hamster ovary) cell line. CHOhERG cells were used for patch-clamp (voltage-clamp, whole-cell) experiments. Cells were stimulated by a voltage pattern to activate hERG channels and conduct IKhERG currents (rapid delayed outward rectifier potassium current of the hERG channel). After the cells were stabilized for a few minutes, the amplitude and kinetics of IKhERG were recorded at a stimulation frequency of 0.1 Hz (6 bpm). Thereafter, the test compound was added to the preparation at increasing concentrations. For each concentration, an attempt was made to reach a steady-state effect, usually, this was achieved within 3-10 min at which time the next highest concentration was applied. The amplitude and kinetics of IKhERG are recorded in each concentration of the drug which were compared to the control values (taken as 100%). (references: Redfern WS, Carlsson L, Davis AS, Lynch WG, MacKenzie I, Palethorpe S, Siegl PK, Strang I, Sullivan AT, Wallis R, Camm AJ, Hammond TG. 2003; Relationships between preclinical cardiac electrophysiology, clinical QT interval prolongation and torsade de pointes for a broad range of drugs: evidence for a provisional safety margin in drug development. Cardiovasc. Res. 58:32-45, Sanguinetti MC, Tristani-Firouzi M. 2006; hERG potassium channels and cardiac arrhythmia. Nature 440:463-469, Webster R, Leishman D, Walker D. 2002; Towards a drug concentration effect relationship for QT prolongation and torsades de pointes. Curr. Opin. Drug Discov. Devel. 5:116-26).
Table 3. hERG and safety ratio results

[1] = Human microsome stability assay; assay type: in vitro ADME; settings: 1 µM test compound, 0.5 mg/mL liver microsomal protein, 37 °C
In short: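 Test compound at 1 µM was incubated with human liver microsomes (0.5 mg/mL protein) and an NADPH-regenerating system in 100 mM potassium phosphate, pH 7.4, at 37 °C. Samples were taken at 0–30 min and quenched with acetonitrile. Remaining compound was quantified by LC-MS/MS, with no-NADPH controls.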

T1 sequence (Q12809 whole entry): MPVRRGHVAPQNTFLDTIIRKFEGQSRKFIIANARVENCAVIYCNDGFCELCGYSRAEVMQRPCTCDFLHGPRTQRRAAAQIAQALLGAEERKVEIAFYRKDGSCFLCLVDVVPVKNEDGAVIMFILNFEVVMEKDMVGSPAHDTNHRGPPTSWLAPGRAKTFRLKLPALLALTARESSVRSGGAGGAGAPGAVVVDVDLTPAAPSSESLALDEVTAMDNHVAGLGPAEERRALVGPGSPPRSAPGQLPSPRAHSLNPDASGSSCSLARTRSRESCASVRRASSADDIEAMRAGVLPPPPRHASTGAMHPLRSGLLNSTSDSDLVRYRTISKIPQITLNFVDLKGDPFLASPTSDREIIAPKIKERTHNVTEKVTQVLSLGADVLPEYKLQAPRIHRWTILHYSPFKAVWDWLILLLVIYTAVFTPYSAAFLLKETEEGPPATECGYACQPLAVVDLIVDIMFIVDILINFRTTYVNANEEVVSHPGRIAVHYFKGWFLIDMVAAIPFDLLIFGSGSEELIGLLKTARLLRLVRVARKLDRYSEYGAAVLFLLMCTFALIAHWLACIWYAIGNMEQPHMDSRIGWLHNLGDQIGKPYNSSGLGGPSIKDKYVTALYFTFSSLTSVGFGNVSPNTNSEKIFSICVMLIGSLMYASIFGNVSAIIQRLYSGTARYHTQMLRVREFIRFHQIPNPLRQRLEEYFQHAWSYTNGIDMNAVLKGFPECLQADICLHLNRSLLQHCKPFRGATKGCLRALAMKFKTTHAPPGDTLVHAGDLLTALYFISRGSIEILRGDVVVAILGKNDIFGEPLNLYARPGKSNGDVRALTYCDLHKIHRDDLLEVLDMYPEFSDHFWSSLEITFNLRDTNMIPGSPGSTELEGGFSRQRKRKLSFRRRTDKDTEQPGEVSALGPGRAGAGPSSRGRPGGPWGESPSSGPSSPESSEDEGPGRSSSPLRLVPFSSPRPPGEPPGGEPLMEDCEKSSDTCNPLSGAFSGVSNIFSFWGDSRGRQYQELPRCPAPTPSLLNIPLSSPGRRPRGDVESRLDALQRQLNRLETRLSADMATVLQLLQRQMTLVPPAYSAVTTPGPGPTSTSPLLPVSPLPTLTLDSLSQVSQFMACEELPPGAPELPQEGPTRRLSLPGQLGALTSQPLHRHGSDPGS

Compound: C[C@@H]1Cc2cnc(N3CCN(C[C@H]4CN(c5ccc(C#N)c6ncccc56)C[C@@H](C)O4)CC3)cc2CN1 (single isomer, unassigned) [Example 77]
IC50 (hERG channel): > 20 µM
IC20 (hERG channel): > 10 µM
hERG IC20 / TLR8 IC50 (hERG channel): >1515.2
hERG IC20 / TLR7 IC50 (hERG channel): >885.0
hERG IC20 / TLR9 IC50 (hERG channel): >86.9
Clearance of Human microsome [1]: 0.38 L/h/kg

Compound: C[C@@H]1CN(c2ccc(C#N)c3ncccc23)C[C@H](CN2CCN(c3cc4c(cn3)CCNC4)CC2)O1 [Example 20, 5-[(2R,6S)-2-methyl-6-[[4-(5,6,7,8-tetrahydro-2,6-naphthyridin-3-yl)piperazin-1-yl]methyl]morpholin-4-yl]quinoline-8-carbonitrile]
IC50 (hERG channel): > 20 µM
IC20 (hERG channel): > 10 µM
hERG IC20 / TLR8 IC50 (hERG channel): >1666.7
hERG IC20 / TLR7 IC50 (hERG channel): >1298.7
hERG IC20 / TLR9 IC50 (hERG channel): >139.1
Clearance of Human microsome [1]: 0.386 L/h/kg

Compound: C[C@@H]1CN(c2ccc(C#N)c3ncccc23)C[C@H](CN2CCN(c3cc4c(cn3)CCN[C@@H]4C)CC2)O1 (single isomer, unassigned) [Example 74]
IC50 (hERG channel): > 20 µM
IC20 (hERG channel): > 10 µM
hERG IC20 / TLR8 IC50 (hERG channel): >2857.1
hERG IC20 / TLR7 IC50 (hERG channel): >1470.6
hERG IC20 / TLR9 IC50 (hERG channel): >112.1
Clearance of Human microsome [1]: 0.443 L/h/kg

Compound: C[C@@H]1CN(c2ccc(C#N)c3ncccc23)C[C@H](CN2CCN(c3cc4c(cn3)C[C@H](C)NC4)CC2)O1 (single isomer, unassigned) [Example 76]
IC50 (hERG channel): > 20 µM
IC20 (hERG channel): > 10 µM
hERG IC20 / TLR8 IC50 (hERG channel): >1960.8
hERG IC20 / TLR7 IC50 (hERG channel): >714.3
hERG IC20 / TLR9 IC50 (hERG channel): >102.7
Clearance of Human microsome [1]: 0.369 L/h/kg

Compound: C[C@@H]1CN(c2ccc(C#N)c3ncccc23)C[C@H](CN2CCN(c3ccc4c(c3)CNC4)CC2)O1 [Example 7, 5-[(2S,6R)-2-[(4-isoindolin-5-ylpiperazin-1-yl)methyl]-6-methyl-morpholin-4-yl] quinoline-8-carbonitrile]
IC50 (hERG channel): > 20 µM
IC20 (hERG channel): 5.74 µM
hERG IC20 / TLR8 IC50 (hERG channel): 194.6
hERG IC20 / TLR7 IC50 (hERG channel): 146.5
hERG IC20 / TLR9 IC50 (hERG channel): 64.5
Clearance of Human microsome [1]: 0.525 L/h/kg

Now from value to molecule, other results behind:

Clearance of Human microsome [1]: 0.409 L/h/kg
Compound: C[C@@H]1CN(c2ccc(C#N)c3ncccc23)C[C@H](CN2CCN(c3ccc4c(c3)C(O)CNC4)CC2)O1 (stereo partly drawn) [Example 22, 5-[(2S,6R)-2-[[4-(4-hydroxy-1,2,3,4-tetrahydroisoquinolin-6-yl)piperazin-1-yl]methyl]-6-methyl-morpholin-4-yl]quinoline-8-carbonitrile]
IC50 (hERG channel): > 20 µM
IC20 (hERG channel): > 10 µM
hERG IC20 / TLR8 IC50 (hERG channel): >520.8
hERG IC20 / TLR7 IC50 (hERG channel): >259.7
hERG IC20 / TLR9 IC50 (hERG channel): >222.7

Clearance of Human microsome [1]: 0.374 L/h/kg
Compound: C[C@@H]1CN(c2ccc(C#N)c3ncccc23)C[C@H](CN2CCN(c3ccc4c(n3)CNCC4)CC2)O1 [Example 69, 5-[(2R,6S)-2-methyl-6-[[4-(5,6,7,8-tetrahydro-1,7-naphthyridin-2-yl)piperazin-1-yl]methyl]morpholin-4-yl]quinoline-8-carbonitrile]
IC50 (hERG channel): > 20 µM
IC20 (hERG channel): 8.65 µM
hERG IC20 / TLR8 IC50 (hERG channel): 1879.8
hERG IC20 / TLR7 IC50 (hERG channel): 697.4
hERG IC20 / TLR9 IC50 (hERG channel): 104.3

Clearance of Human microsome [1]: 0.369 L/h/kg
Compound: C[C@@H]1CN(c2ccc(C#N)c3ncccc23)C[C@H](CN2CCN(c3cnc4c(c3)CCNC4)CC2)O1 [Example 23, 5-[(2R,6S)-2-methyl-6-[[4-(5,6,7,8-tetrahydro-1,7-naphthyridin-3-yl)piperazin-1-yl]methyl]morpholin-4-yl]quinoline-8-carbonitrile]
IC50 (hERG channel): > 20 µM
IC20 (hERG channel): > 10 µM
hERG IC20 / TLR8 IC50 (hERG channel): >934.6
hERG IC20 / TLR7 IC50 (hERG channel): >170.6
hERG IC20 / TLR9 IC50 (hERG channel): >170.1

Clearance of Human microsome [1]: 0.9258 L/h/kg
Compound: C[C@@H]1CN(c2ccc(C#N)c3ncccc23)C[C@H](CN2CCN(c3ccc(Cl)cc3)CC2)O1 [Example R2, 5-[(2S,6R)-2-[[4-(4-chlorophenyl)piperazin-1-yl]methyl]-6-methyl-morpholin-4-yl]quinoline-8-carbonitrile, reference compound]
IC50 (hERG channel): 0.77 µM
IC20 (hERG channel): 0.28 µM
hERG IC20 / TLR8 IC50 (hERG channel): 0.8
hERG IC20 / TLR7 IC50 (hERG channel): 1.3
hERG IC20 / TLR9 IC50 (hERG channel): 0.04

Clearance of Human microsome [1]: 0.369 L/h/kg
Compound: C[C@@H]1CN(c2ccc(C#N)c3nccnc23)C[C@H](CN2CCN(c3cc4c(cn3)C[C@H](C)NC4)CC2)O1 (single isomer, unassigned) [Example 81]

Clearance of Human microsome [1]: 0.453 L/h/kg
Compound: C[C@@H]1Cc2cc(N3CCN(C[C@H]4CN(c5ccc(C#N)c6ncccc56)C[C@@H](C)O4)CC3)ncc2CN1 (single isomer, unassigned) [Example 70]
IC50 (hERG channel): > 20 µM
IC20 (hERG channel): > 10 µM
hERG IC20 / TLR8 IC50 (hERG channel): >2439.0
hERG IC20 / TLR7 IC50 (hERG channel): >390.6
hERG IC20 / TLR9 IC50 (hERG channel): >120.91
